# Source: patent US9481670B2, “Triazine compounds” (Sphaera Pharma PTE. Ltd., priority 2011, dated 2016)
# Molecular target: T1, PI3K alpha (Homo sapiens, UniProt P42336)
# T1 construct: purchased Millipore Upstate
# Experiment: P110 Alpha TR-FRET Assay (PI3K alpha kinase assay, HTRF Transcreener ADP Assay)
# Assay type: biochemical
# Settings: PI3K (WT)
# Procedure, shortened: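 HTRF Transcreener ADP read-out of ADP formed by PI3K (50 ng enzyme) in 50 mM HEPES pH 7.5, 5 mM MgCl2, 1 mM DTT, 30 μM Na3VO4. Compound preincubated with enzyme 20 min; reaction started with 10 μM ATP and 5 μM PIP2, run 20 min, then ADP-d2/anti-ADP cryptate detection for 1 h.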
# T1 sequence (P42336 whole entry): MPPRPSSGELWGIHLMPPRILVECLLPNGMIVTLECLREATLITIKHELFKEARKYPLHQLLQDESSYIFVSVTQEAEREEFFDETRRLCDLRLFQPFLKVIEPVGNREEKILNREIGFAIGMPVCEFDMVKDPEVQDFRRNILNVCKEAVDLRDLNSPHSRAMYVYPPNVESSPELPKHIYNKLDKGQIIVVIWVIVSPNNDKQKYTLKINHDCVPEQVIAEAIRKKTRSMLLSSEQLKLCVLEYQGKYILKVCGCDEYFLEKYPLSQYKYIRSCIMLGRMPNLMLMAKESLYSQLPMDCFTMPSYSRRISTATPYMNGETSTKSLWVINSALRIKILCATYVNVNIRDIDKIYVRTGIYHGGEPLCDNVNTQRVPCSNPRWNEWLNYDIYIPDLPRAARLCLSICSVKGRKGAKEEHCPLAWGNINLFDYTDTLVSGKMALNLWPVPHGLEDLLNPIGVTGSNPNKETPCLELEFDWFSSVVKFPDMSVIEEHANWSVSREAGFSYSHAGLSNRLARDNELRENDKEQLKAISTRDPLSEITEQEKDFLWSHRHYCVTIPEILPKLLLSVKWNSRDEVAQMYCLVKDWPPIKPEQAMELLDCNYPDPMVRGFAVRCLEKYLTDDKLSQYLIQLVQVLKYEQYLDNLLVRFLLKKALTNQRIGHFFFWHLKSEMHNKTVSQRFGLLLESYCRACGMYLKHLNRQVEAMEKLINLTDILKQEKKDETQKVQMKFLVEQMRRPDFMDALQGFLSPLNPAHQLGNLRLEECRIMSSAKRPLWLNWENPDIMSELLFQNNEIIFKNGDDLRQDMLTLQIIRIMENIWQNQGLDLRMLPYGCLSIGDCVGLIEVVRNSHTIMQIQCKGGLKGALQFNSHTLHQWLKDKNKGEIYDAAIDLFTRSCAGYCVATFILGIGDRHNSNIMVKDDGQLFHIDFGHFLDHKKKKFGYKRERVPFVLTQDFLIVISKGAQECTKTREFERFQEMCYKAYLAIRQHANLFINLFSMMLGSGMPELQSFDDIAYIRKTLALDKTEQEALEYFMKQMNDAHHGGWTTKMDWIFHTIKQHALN
# T1 sequence (P27986 whole entry partner): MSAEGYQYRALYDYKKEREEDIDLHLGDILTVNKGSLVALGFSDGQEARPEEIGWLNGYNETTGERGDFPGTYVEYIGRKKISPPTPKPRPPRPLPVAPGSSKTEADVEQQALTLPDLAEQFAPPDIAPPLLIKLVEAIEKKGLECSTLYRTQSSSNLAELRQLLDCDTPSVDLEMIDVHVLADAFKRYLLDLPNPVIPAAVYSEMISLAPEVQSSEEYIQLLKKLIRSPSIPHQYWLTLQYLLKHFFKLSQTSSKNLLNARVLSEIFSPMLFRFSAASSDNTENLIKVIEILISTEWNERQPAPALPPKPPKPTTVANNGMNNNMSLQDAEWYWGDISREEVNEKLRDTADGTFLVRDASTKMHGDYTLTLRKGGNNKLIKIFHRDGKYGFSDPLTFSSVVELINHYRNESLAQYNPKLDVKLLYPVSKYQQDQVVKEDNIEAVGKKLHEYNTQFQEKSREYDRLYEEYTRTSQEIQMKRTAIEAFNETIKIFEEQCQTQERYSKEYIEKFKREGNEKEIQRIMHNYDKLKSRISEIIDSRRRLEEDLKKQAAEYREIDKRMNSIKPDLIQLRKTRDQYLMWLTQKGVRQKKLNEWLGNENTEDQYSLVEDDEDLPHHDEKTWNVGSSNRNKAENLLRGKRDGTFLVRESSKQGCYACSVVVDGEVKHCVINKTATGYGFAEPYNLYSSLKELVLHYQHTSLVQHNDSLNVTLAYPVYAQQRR
row,Compound,IC50 [µM]
1,"CN(C)C(=O)CNc1nc(-c2cccc(C(F)F)c2)nc(N2CCOCC2)n1 [Compound 1137, 2-((4-(3-(difluoromethyl)phenyl)-6-morpholino-1,3,5-triazin-2-yl)amino)-N,N-dimethylacetamide]",> 5
2,"CC(Nc1nc(-c2cccc(NS(C)(=O)=O)c2)nc(N2CCOCC2)n1)C(=O)O (stereo not shown) [Compound 1138, 2-((4-(3-(methylsulfonamido)phenyl)-6-morpholino-1,3,5-triazin-2-yl)amino)propanoic acid]",> 5
3,"Nc1nc(-c2cccc(O)c2)nc(N2CCOCC2)n1 [Compound 1139, 3-8-[4-3-amino-6-5-(morpholin-4-yl)-1,3,5-triazin-2-yl]phenol]",< 5
4,"COC1CCN(C(=O)c2cccc(Nc3nc(-c4cccc5[nH]ncc45)nc(N4CCOCC4)n3)c2)CC1 [Compound 1140, (3-((4-(1H-indazol-4-yl)-6-morpholino-1,3,5-triazin-2-yl)amino)phenyl)(4-methoxypiperidin-1-yl)methanone]",< 5
5,"CN(C)C(=O)CNc1nc(-c2cccc(C#N)c2)nc(N2CCOCC2)n1 [Compound 1141, 2-((4-(3-cyanophenyl)-6-morpholino-1,3,5-triazin-2-yl)amino)-N,N-dimethylacetamide]",> 5
6,"CNC(=O)[C@H]1CC[C@H](Oc2nc(-c3cccc4[nH]ncc34)nc(N3CCOCC3)n2)CC1 [Compound 1142, (1r,4r)-4-21-{[4-1-(1H-indazol-4-yl)-6-5-(morpholin-4-yl)-1,3,5-triazin-2-yl]oxy}-N-methylcyclohexane-1-carboxamide]",< 5
7,"CN(C)C(=O)[C@H]1CC[C@@H](Oc2nc(-c3cccc4[nH]ncc34)nc(N3CCOCC3)n2)CC1 [Compound 1143, (1s,4s)-4-21-{[4-1-(1H-indazol-4-yl)-6-5-(morpholin-4-yl)-1,3,5-triazin-2-yl]oxy}-N,N-dimethylcyclohexane-1-carboxamide]",< 5
8,"CN(C)C(=O)CNc1nc(-c2ccc(O)nc2)nc(N2CCOCC2)n1 [Compound 1145, 2-((4-(6-hydroxypyridin-3-yl)-6-morpholino-1,3,5-triazin-2-yl)amino)-N,N-dimethylacetamide]",< 5
9,"CS(=O)(=O)Nc1cccc(-c2nc(NCC(=O)O)nc(N3CCOCC3)n2)c1 [Compound 1146, 2-((4-(3-(methylsulfonamido)phenyl)-6-morpholino-1,3,5-triazin-2-yl)amino)acetic acid]",> 5
10,"CN(C)C(=O)NC(C)(C)COc1nc(-c2cccc3[nH]ncc23)nc(N2CCOCC2)n1 [Compound 1147, 1-(1-14-{[4-1-(1H-indazol-4-yl)-6-5-(morpholin-4-yl)-1,3,5-triazin-2-yl]oxy}-2-15-methylpropan-2-yl)-3,3-dimethylurea]",< 5
11,"CCN1CCC(Oc2nc(-c3cccc4[nH]ncc34)nc(N3CCOCC3)n2)CC1 [Compound 1149, 4-7-{4-3-[(1-25-ethylpiperidin-4-yl)oxy]-6-5-(morpholin-4-yl)-1,3,5-triazin-2-yl}-1H-indazole]",< 5
12,"CN(C)C(=O)CNc1nc(-c2cncc(O)c2)nc(N2CCOCC2)n1 [Compound 1150, 2-((4-(5-hydroxypyridin-3-yl)-6-morpholino-1,3,5-triazin-2-yl)amino)-N,N-dimethylacetamide]",< 5
13,"c1cc(-c2nc(OC3CCNCC3)nc(N3CCOCC3)n2)c2cn[nH]c2c1 [Compound 1151, 4-7-[4-5-(morpholin-4-yl)-6-3-(piperidin-4-yloxy)-1,3,5-triazin-2-yl]-1H-indazole]",< 5
14,"N[C@H]1CC[C@H](Oc2nc(-c3cccc4[nH]ncc34)nc(N3CCOCC3)n2)CC1 [Compound 1152, (1r,4r)-4-9-{[4-1-(1H-indazol-4-yl)-6-5-(morpholin-4-yl)-1,3,5-triazin-2-yl]oxy}cyclohexan-1-amine]",< 5
15,"O=C(O)C1(Nc2nc(-c3cccc(O)c3)nc(N3CCOCC3)n2)CCCC1 [Compound 1153, 1-((4-(3-hydroxyphenyl)-6-morpholino-1,3,5-triazin-2-yl)amino)cyclopentanecarboxylic acid]",< 5
16,"NC(=O)C1CN(C(=O)c2cccc(Nc3nc(-c4cccc5[nH]ncc45)nc(N4CCOCC4)n3)c2)C1 [Compound 1154, 1-(3-((4-(1H-indazol-4-yl)-6-morpholino-1,3,5-triazin-2-yl)amino)benzoyl)azetidine-3-carboxamide]",< 5
17,"CC(C)(CO)Nc1nc(-c2cccc(O)c2)nc(N2CCOCC2)n1 [Compound 1155, 3-6-{4-3-[(1-hydroxy-2-methylpropan-2-yl)amino]-6-5-(morpholin-4-yl)-1,3,5-triazin-2-yl}phenol]",< 5
18,"COc1ccc(F)c(-c2nc(NCC(=O)O)nc(N3CCOCC3)n2)c1 [Compound 1156, 2-((4-(2-fluoro-5-methoxyphenyl)-6-morpholino-1,3,5-triazin-2-yl)amino)acetic acid]",> 5
19,"O=C(NC1CCNCC1)c1cccc(Nc2nc(-c3cccc4[nH]ncc34)nc(N3CCOCC3)n2)c1 [Compound 1157, 3-((4-(1H-indazol-4-yl)-6-morpholino-1,3,5-triazin-2-yl)amino)-N-(piperidin-4-yl)benzamide]",< 5
20,"NC(=O)c1sccc1Nc1nc(-c2cccc3[nH]ncc23)nc(N2CCOCC2)n1 [Compound 1158, 3-((4-(1H-indazol-4-yl)-6-morpholino-1,3,5-triazin-2-yl)amino)thiophene-2-carboxamide]",< 5
21,"Oc1cccc(-c2nc(N3CCOCC3)nc(N3CCOCC3)n2)c1 [Compound 1160, 3-6-[4-1,6-2-bis(morpholin-4-yl)-1,3,5-triazin-2-yl]phenol]",< 5
22,"O=C(O)CNc1nc(-c2cccc(C(=O)O)c2)nc(N2CCOCC2)n1 [Compound 1161, 3-6-{4-1-[(carboxymethyl)amino]-6-2-(morpholin-4-yl)-1,3,5-triazin-2-yl}benzoic acid]",> 5
23,"Nc1nc(-c2ccccc2)nc(N2CCOCC2)n1 [Compound 1162, 4-0-(morpholin-4-yl)-6-4-phenyl-1,3,5-triazin-2-amine]",> 5
24,"O=C1CN(C(=O)c2cccc(Nc3nc(-c4cccc5[nH]ncc45)nc(N4CCOCC4)n3)c2)CCN1 [Compound 1163, 4-(3-((4-(1H-indazol-4-yl)-6-morpholino-1,3,5-triazin-2-yl)amino)benzoyl)piperazin-2-one]",< 5
25,"COC1CN(C(=O)c2cccc(Nc3nc(-c4cccc5[nH]ncc45)nc(N4CCOCC4)n3)c2)C1 [Compound 1164, (3-((4-(1H-indazol-4-yl)-6-morpholino-1,3,5-triazin-2-yl)amino)phenyl)(3-methoxyazetidin-1-yl)methanone]",< 5
26,"C[C@H](Nc1nc(-c2ccc(N)nc2)nc(N2CCOCC2)n1)C(=O)N(C)C [Compound 1165, 2-((4-(6-aminopyridin-3-yl)-6-morpholino-1,3,5-triazin-2-yl)amino)-N,N-dimethylpropanamide]",< 5
27,"c1ccc(CSc2nc(-c3cccc4[nH]ncc34)nc(N3CCOCC3)n2)cc1 [Compound 1166, 4-(4-(benzylthio)-6-(1H-indazol-4-yl)-1,3,5-triazin-2-yl)morpholine]",< 5
28,"CN(C)C(=O)CNc1nc(-c2cccc(O)c2)nc(N2CCOCC2)n1 [Compound 1167, 2-((4-(3-hydroxyphenyl)-6-morpholino-1,3,5-triazin-2-yl)amino)-N,N-dimethylacetamide]",< 5
